Measured values published in patent publication US20230128194A1, “METHODS AND COMPOSITIONS TO ALTER HEPATIC GABA RELEASE TO TREAT OBESITY-RELATED CONDITIONS” (ARIZONA BOARD OF REGENTS ON BEHALF OF THE UNIVERSITY OF …, priority 2017, published 2023).

Key:
Kir2.1 = molecular target: T1, Kir2.1 (Homo sapiens, UniProt P63252); assay: Barium induced change in hepatocyte membrane potential in Kir2.1 and eGFP expressing mice; type: in vivo, mouse; details: 50 μM bath application
T1 construct: host or cells: hepatocytes of wildtype mice in vivo, AAV8 with TBG promoter
T1 sequence (P63252 1-427): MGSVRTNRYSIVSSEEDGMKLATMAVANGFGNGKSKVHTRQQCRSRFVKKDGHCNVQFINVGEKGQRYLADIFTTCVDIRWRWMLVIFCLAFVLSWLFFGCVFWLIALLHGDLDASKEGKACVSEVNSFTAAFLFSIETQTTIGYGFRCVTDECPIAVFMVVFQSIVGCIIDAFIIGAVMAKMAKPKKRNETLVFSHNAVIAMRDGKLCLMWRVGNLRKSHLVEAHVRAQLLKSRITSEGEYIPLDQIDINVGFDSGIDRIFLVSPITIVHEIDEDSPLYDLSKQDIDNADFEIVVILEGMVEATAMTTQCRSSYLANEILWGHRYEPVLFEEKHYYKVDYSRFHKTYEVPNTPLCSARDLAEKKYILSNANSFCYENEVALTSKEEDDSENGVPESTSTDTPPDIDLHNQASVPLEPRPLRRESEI

Na+/K+ ATPase = assay: liver slice GABA release with Na+/K+ ATPase inhibitor; type: cell-based, mouse; details: 1 mM, bath application
Description: Two liver slices were taken from each mouse.

[1] = test system: PSEM89S ligand-gated depolarizing channel; type: in vivo, mouse
Description: (§1) The depolarizing channel (PSAM^L141F,Y115F-5 HT3HC), originally engineered by Dr. Scott Sternsons group, was made by mutating the acetylcholine binding domain of a chimeric channel that included the binding domain of the α7 nicotinic acetylcholine receptor and the ion pore domain of the serotonin receptor 3a. The ligand binding domain mutations (Leu^141→Phe and Tyr^115→Phe) limited the agonist action of acetylcholine and allowed for stimulation by a pharmacologically selective effector molecule PSEM89S. The exogenous ligand PSEM89S opens the serotonin receptor 3a channel allowing Na^+, K^+, and Ca^++ passage into the cell and membrane depolarization. AAV8 viral vectors were used for plasmid delivery in all the reported studies and were synthesized by the Penn Vector Core. Hepatic specific expression of the depolarizing channel was achieved through two different methods. First, expression of a cre-recombinase dependent depolarizing channel was driven by a globally expressed CAG promoter. LoxP sites limited expression to cre-recombinase expressing tissue, and tail vein injection of 1×10^10 viral genome copies established hepatocyte expression in albumin-cre but not wildtype mice. Second, a separate AAV8 viral vector, induced hepatic specific expression of the same depolarizing channel by driving expression using the thyroxine binding globulin (TBG) promoter. Tail vein injection of 1×10^11 viral genome copies established hepatocyte expression (FIG. 18C). The thyroxine binding globulin promoter also drove hepatic expression of the hyperpolarizing, inward-rectifier K^+ channel, Kir2.1. […]
Simultaneous in vivo recordings were performed of hepatocyte membrane potential and hepatic afferent vagal nerve firing activity in anesthetized (isoflurane) mice to directly assess the effect of hepatocyte depolarization on hepatic afferent vagal nerve activity. […] After placement and sealing of the hook electrode, 45-60 minutes of basal nerve activity was monitored/recorded with pClamp software (version 10.2; Molecular Devices) until nerve activity stabilized, after which, treatments began. […]

[2] = test system: PSEM89S ligand-gated depolarizing channel; assay: PSEM89S ligand IP in mice with cre-dependent hepatic depolarizing channel: serum insulin, glucose; type: in vivo, mouse; details: 30 mg/kg IP
Description: The depolarizing channel (PSAM^L141F,Y115F-5 HT3HC), originally engineered by Dr. Scott Sternsons group, was made by mutating the acetylcholine binding domain of a chimeric channel that included the binding domain of the α7 nicotinic acetylcholine receptor and the ion pore domain of the serotonin receptor 3a. The ligand binding domain mutations (Leu^141→Phe and Tyr^115→Phe) limited the agonist action of acetylcholine and allowed for stimulation by a pharmacologically selective effector molecule PSEM89S. The exogenous ligand PSEM89S opens the serotonin receptor 3a channel allowing Na^+, K^+, and Ca^++ passage into the cell and membrane depolarization. AAV8 viral vectors were used for plasmid delivery in all the reported studies and were synthesized by the Penn Vector Core. Hepatic specific expression of the depolarizing channel was achieved through two different methods. First, expression of a cre-recombinase dependent depolarizing channel was driven by a globally expressed CAG promoter. LoxP sites limited expression to cre-recombinase expressing tissue, and tail vein injection of 1×10^10 viral genome copies established hepatocyte expression in albumin-cre but not wildtype mice. Second, a separate AAV8 viral vector, induced hepatic specific expression of the same depolarizing channel by driving expression using the thyroxine binding globulin (TBG) promoter. Tail vein injection of 1×10^11 viral genome copies established hepatocyte expression (FIG. 18C). The thyroxine binding globulin promoter also drove hepatic expression of the hyperpolarizing, inward-rectifier K^+ channel, Kir2.1. Tail vein injection of 1×10^11 viral genome copies established hepatocyte specific expression (FIG. 19A). To confirm channel expression and tissue specificity, all viral vector plasmids encoded for enhanced green fluorescent protein (eGFP).
All studies in virus injected mice were conducted at least 5 days post virus injection to allow for maximal channel expression. Individually housed mice were intraperitoneally injected with the ligand for the depolarizing channel (PSEM89S; 30 mg/kg; 0.1 mL/10 g body weight) or PBS (0.1 mL/10 g body weight).
Studies conducted in mice injected with the cre-dependent depolarizing channel virus took place at 8 am. […]
(§2) Within 2 hours of collection, blood was left to clot at room temperature for 20 minutes. […] Serum glucose was analyzed by colorimetric assay (Cat. #G7519, Pointe Scientific Inc., Canton Mich.). Serum insulin was analyzed by enzyme-linked immunosorbent assay (ELISA; Cat. #80-INSMSU-E01,E10, Alpco, Salem, N.H.). Serum glucagon was analyzed by enzyme-linked immunosorbent assay (ELISA; Cat. #10-1281-01, Mercodia, Uppsala, Sweden) from tail vein blood collected at 9 am from fed mice (Vagotomy study) or after a 4 hour fast at 1 PM (Kir2.1 study).

[3] = test system: PSEM89S ligand-gated depolarizing channel; assay: PSEM89S ligand IP before oral glucose in mice with TBG promoter driven depolarizing channel; type: in vivo, mouse; details: TBG channel expressing mice
Description: as §1, with “18C).” for “18C). The thyroxine binding globulin promoter also drove hepatic expression of the hyperpolarizing, inward-rectifier K^+ channel, Kir2.1.”
as §2

[4] = test system: high fat diet-induced obese mice; assay: GABA-T inhibitors (8 mg/day IP) in HFD-induced obese mice: body weight, serum insulin/glucose/glucagon, OGTT, ITT; type: in vivo, mouse
Description: (§3) All animal studies were conducted using male wildtype C57BL/6J mice purchased from Jackson Laboratories or bred in-house (Bar Harbor, Me.). Mice were kept on a 14-hour light/10-hour dark schedule and housed 3-5 mice per cage until 1 week prior to study initiation, at which point animals were individually housed. Studies were conducted in lean chow fed mice (7013 NIH-31, Teklad WI, 3.1 kcal/g, 18% kcal from fat, 59% kcal from carbohydrate, 23% kcal from protein) at 12-16 weeks of age. Studies in diet-induced obese mice dosed intraperitoneally with GABA transaminase inhibitors, mice treated with ethanolamine-O-sulfate in their drinking water, and mice treated with GABA-T targeted or scramble control antisense oligonucleotides (ASO) were performed after 8-10 weeks on a high fat diet (TD 06414, Teklad WI, 5.1 kcal/g, 60.3% kcal from fat, 21.3% kcal from carbohydrate, 18.4% kcal from protein; 20-26 weeks of age). For ASO studies, mice were stratified by body weight and assigned to an injection treatment (control or GABA-T). Studies in obese vagotomy and sham mice were performed after 9 weeks of high fat diet feeding. Unless fasted, mice had ad libitum access to food and water. All studies were approved by The University of Arizona Institutional Animal Care and Use Committee.
(§4) Wildtype lean and obese mice were randomly divided into treatment groups and dosed daily with 8 mg of ethanolamine-O-sulfate (EOS; Sigma-Aldrich, St. Louis, Mo.), vigabatrin (United States Pharmacopeia, Rockville, Md.) or PBS. Obese sham and vagotomy mice were dosed daily with 8 mg of EOS. In all cases, basal bleeds were taken prior to initiation of an ITT. Lean mice received treatment by oral gavage (0.3 mL/mouse) while obese mice were treated by intraperitoneal injection (0.3 mL/mouse). Pre-treatment studies were conducted in the week immediately prior to beginning drug administration. Daily doses took place at 9 am each day and oral glucose tolerance tests (OGTT) and insulin tolerance tests (ITT) were performed on the third and fourth days of treatment in lean mice, respectively. In wildtype obese mice, OGTT and ITT were performed on the fourth day of treatment in separate cohorts. On the fifth day of treatment, 2DG clearance studies were performed. In sham/vagotomy mice, OGTT and ITT were performed on the fourth and fifth day of treatment, respectively. After a 2-week washout period without treatment injection, a basal bleed and bleed 15 minutes after an oral glucose gavage ([…]) to determine oral glucose stimulated insulin secretion were performed.
(§5) Oral glucose (2.5 g/kg; 0.1 mL/10 g body weight; Chem-Impex Int'l Inc., Wood Dale, Ill.) was given to 4 hour fasted individually housed mice. All glucose tolerance tests began at […] and glucose was measured in whole blood, collected from the tail vein, by glucometer (Manufacture #D2ASCCONKIT, Bayer, Leverkusen, Germany) at 0, 15, 30, 60, 90, and 120 minutes after glucose gavage. Blood for serum insulin (oral glucose stimulated insulin secretion; OGSIS) and glucose determination was collected from the tail vein 15 minutes following glucose administration.
(§6) Intraperitoneal insulin (0.5 U/kg; 0.1 mL/10 g body weight; Sigma Aldrich, St. Louis, Mo.) was given to 4 hour fasted individually housed mice. All insulin tolerance tests began at […] and glucose was measured in whole blood, collected from the tail vein, by glucometer (Manufacture #D2ASCCONKIT, Bayer, Leverkusen, Germany) at 0, 30, 60, 90, and 120 minutes after insulin injection.
(§7) Within 2 hours of collection, blood was left to clot at room temperature for 20 minutes. Thereafter, the blood was centrifuged at 3,000×g for 30 minutes at 4° C. and serum was collected. Serum was stored at −80° C. until metabolite and hormone analyses. A colorimetric assay was used to analyze serum glucose (Cat. #G7519, Pointe Scientific Inc., Canton Mich.). Serum insulin was analyzed by enzyme-linked immunosorbent assay (ELISA; Cat. #80-INSMSU-E01,E10, Alpco, Salem, N.H.). […]

lean mice = assay: GABA-T inhibitors (8 mg/day oral gavage) in lean mice: glucose homeostasis; type: in vivo, mouse; details: 8 mg/day
Description: as §3, §4, §5, §6, §7

[5] = test system: lean mice and obese control or GABA-T ASO treated mice; assay: leptin sensitivity (single 6 am leptin injection): food intake, body weight; type: in vivo, mouse
Description: Lean mice or diet-induced obese control or GABA-T targeted ASO treated mice received an intraperitoneal injection of phosphate buffered saline (PBS; 0.1 mL/10 g body weight) on day 1 and leptin (2 mg/kg; 0.1 mL/10 g body weight; CAT#498-OB, R&D Systems, Minneapolis, Minn.) on day 2 at 6 am. Mice were not fasted before injections. Food and body weight were measured every day at 6 am and 6 pm.

[6] = albumin-cre channel expressing mice
[7] = 30 mg/kg IP 10 minutes before oral glucose 2.5 g/kg
[8] = 8 mg/day IP, four days, relative to pre-treatment
[9] = chow fed mice, single 6AM injection

[Ba+2] [Ba2+, Barium]
depolarization of hepatocytes (Kir2.1; Kir2.1 expressing mice): 6.86±1.54 mV
change in hepatocyte membrane potential (Kir2.1; control eGFP expressing mice): −0.62±1.86 mV

C[C@@H]1O[C@@H](O[C@H]2C[C@@H](O)[C@]3(CO)[C@H]4[C@H](O)C[C@]5(C)[C@@H](C6=CC(=O)OC6)CC[C@]5(O)[C@@H]4CC[C@]3(O)C2)[C@H](O)[C@H](O)[C@H]1O [Ouabain]
increase of liver slice GABA release (μmol/mg DNA) (Na+/K+ ATPase): more than 40%

COc1ccc(OC)c(C(=O)N[C@@H]2CN3CCC2CC3)c1.O=C(O)C(F)(F)F [PSEM89S ligand]
HVAN firing activity ([1]; 30 μM bath application, albumin-cre channel expressing mice): decreased
hepatocyte depolarization at 10 minutes ([1]; mouse, in vivo): 17.0±5.4 mV
maximal hepatocyte depolarization ([1]; mouse, in vivo): 28±5.4 mV
serum glucose [2, 6]: decreased
serum insulin [2, 6]: more than doubled
glucose:insulin ratio ([2]; albumin-cre mice): decreased
serum insulin, glucose, or glucose:insulin ratio ([2]; wildtype mice): did not alter
glucose:insulin ratio [3, 7]: lowered
serum insulin [3, 7]: elevated
rise in serum glucose following oral glucose gavage ([3]; 30 mg/kg IP): did not affect

C=CC(N)CCC(=O)O (stereo not shown) [vigabatrin]
glucose:insulin ratio [4, 8]: increased
serum glucose [4, 8]: decreased
serum insulin [4, 8]: decreased
body weight ([4]; 8 mg/day IP, through 5 days, vs saline injected mice): remained similar
glucose stimulated serum insulin ([4]; treatment day 4, relative to pre-treatment): decreased
glucose stimulated serum insulin after washout ([4]; two-weeks washout): markedly increased
serum insulin and glucose:insulin ratio after washout ([4]; two-weeks washout): return of serum insulin and the glucose:insulin ratio to pre-treatment levels
insulin sensitivity assessed by insulin tolerance test (ITT) ([4]; within 4 days of initiating treatment): improved
glucose tolerance (lean mice): no effect
insulin sensitivity (lean mice): no effect
serum insulin concentrations (lean mice): no effect

leptin: anorexigenic hormone leptin (R&D Systems)
body weight [5, 9]: without affecting
light cycle and 24-hour food intake [5, 9]: decreased
relative weight change ([5]; control or GABA-T ASO obese mice, 2 mg/kg): not affected
food intake ([5]; obese mice on either ASO treatment, 2 mg/kg single 6AM injection, any timepoint): did not affect
